pIC50: −log10 of the molar value. Structures can show the parent of a compound that is named as a salt. Where two headings read alike, the source gives them in different places.
Legend:
[1] = Plasma levels following oral administration
[2] = molecular target: T1, PDE6 partially purified from bovine retinal rod (Bos taurus, UniProt P11541+P23439); test: PDE6 inhibition assay, Viagra versus racemic flosequinan (Example 1); format: biochemical
T1 construct: from tissue; host or cells: bovine retinal rod
T1 sequence (P11541 2-856 limits assumed): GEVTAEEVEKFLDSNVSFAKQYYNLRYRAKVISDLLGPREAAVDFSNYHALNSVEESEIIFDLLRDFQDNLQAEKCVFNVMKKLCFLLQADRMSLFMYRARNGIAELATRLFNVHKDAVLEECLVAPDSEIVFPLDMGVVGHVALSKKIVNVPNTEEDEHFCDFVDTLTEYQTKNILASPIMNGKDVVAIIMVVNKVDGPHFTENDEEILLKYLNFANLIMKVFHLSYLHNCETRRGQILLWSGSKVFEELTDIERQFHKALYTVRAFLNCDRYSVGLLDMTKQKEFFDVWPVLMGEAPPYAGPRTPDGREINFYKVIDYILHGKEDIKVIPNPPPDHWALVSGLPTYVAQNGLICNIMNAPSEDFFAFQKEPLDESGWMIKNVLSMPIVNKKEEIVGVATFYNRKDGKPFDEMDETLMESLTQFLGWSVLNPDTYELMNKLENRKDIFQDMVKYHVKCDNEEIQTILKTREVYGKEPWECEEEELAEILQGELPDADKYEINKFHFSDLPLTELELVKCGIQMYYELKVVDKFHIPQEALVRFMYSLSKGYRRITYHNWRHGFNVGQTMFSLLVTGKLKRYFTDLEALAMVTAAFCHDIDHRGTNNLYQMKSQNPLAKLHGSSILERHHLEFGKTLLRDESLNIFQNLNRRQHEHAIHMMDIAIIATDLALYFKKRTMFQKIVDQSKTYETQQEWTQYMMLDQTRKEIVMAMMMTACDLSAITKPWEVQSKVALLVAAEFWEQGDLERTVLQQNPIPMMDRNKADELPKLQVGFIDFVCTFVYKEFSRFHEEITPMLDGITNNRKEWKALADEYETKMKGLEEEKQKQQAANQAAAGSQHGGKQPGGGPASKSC
T1 sequence (P23439 2-850 limits assumed): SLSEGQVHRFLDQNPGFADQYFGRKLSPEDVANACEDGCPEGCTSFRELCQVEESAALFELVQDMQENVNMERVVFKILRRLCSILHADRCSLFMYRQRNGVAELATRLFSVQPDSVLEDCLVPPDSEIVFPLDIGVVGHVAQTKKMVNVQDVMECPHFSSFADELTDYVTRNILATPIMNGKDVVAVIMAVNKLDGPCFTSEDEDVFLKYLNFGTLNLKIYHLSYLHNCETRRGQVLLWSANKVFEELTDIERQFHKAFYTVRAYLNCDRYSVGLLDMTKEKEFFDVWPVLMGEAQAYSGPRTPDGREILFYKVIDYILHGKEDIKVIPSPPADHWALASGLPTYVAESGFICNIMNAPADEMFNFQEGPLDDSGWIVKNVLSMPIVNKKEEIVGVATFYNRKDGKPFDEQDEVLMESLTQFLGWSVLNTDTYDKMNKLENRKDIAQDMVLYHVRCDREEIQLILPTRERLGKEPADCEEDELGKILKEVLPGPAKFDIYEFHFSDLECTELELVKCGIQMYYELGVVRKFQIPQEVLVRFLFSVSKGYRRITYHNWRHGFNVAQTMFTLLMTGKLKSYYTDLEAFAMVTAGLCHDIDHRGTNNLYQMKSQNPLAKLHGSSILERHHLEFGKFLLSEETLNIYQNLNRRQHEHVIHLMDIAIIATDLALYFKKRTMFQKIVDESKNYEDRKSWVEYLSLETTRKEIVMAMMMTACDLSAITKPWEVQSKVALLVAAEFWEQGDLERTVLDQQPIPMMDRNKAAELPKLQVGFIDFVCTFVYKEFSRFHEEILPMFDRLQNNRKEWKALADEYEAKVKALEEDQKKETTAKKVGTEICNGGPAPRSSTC
Experimental: PDE6 partially purified from bovine retinal rod and activated by trypsin was used. In four separate reactions, Viagra at molar concentrations of 0.3 μM, 1.0 μM, and 3.0 μM, and a 100 μM racemic mixture of flosequinan were incubated with 0.2 μg/ml active PDE6 and 100 μM cGMP containing 0.1 μM [^3H]cGMP in Tris buffer pH 7.5 for 20 minutes at 30° C. Each reaction was terminated by raising the temperature to 100° C. for 2 minutes. The resulting GMP was converted to guanosine by addition of 10 mg/ml snake venom nucleotidase and further incubated at 30° C. for 10 minutes. Unhydrolyzed cGMP was bound to AGI-X2 resin, and [^3H]guanosine remaining in the aqueous phase was quantitated by scintillation counting.

[3] = molecular target: T2, PDE2 partially purified from human platelets (Homo sapiens, UniProt O00408); test: PDE2 enzyme inhibition assay (Example 3); format: biochemical; settings: for % Inhibition of PDE2: 100 μM
T2 construct: PDE2 partially purified from human platelets was used; from tissue; host or cells: human platelets
Experimental: (§1) In this example, a racemic mixture of flosequinan and the (+) and (−) enantiomers of flosequinan were subjected to biochemical enzyme assays to determine their respective percent inhibition of a variety of phosphodiesterases (PDE1-PDE6). The reaction conditions for each PDE assay were as follows.
(§2) PDE2: PDE2 partially purified from human platelets was used. A racemic mixture of flosequinan, and each enantiomer of flosequinan, all at a molar concentration of 100 μM, were independently incubated with 23 μg PDE2 enzyme, 25 μM cAMP containing 0.05 μM [^3H]cAMP in Tris buffer pH 7.5 for 20 minutes at 30° C. The reaction was terminated by boiling for 2 minutes, and the resulting AMP was converted to adenosine by addition of 10 mg/ml snake venom nucleotidase and further incubation at 30° C. for 10 minutes. Unhydrolyzed cAMP was bound to AGI-X2 resin, and the remaining [^3H]adenosine in the aqueous phase was quantitated by scintillation counting.

[4] = molecular target: T1, PDE6 partially purified from bovine retinal rod; test: PDE6 enzyme inhibition assay (Example 3); format: biochemical; settings: for % Inhibition of PDE6: 100 μM
Experimental: as §1
PDE6: PDE6 partially purified from bovine retinal rod and activated by trypsin was used. A racemic mixture of flosequinan, and each enantiomer of flosequinan, all at a molar concentration of 100 μM, were independently incubated with 0.2 μg/ml active PDE6 and 100 μM cGMP containing 0.1 μM [^3H]cGMP in Tris buffer pH 7.5 for 20 minutes at 30° C. Each reaction was terminated by boiling for 2 minutes. The resulting GMP was converted to guanosine by addition of 10 mg/ml snake venom nucleotidase, and further incubated at 30° C. for 10 minutes. Unhydrolyzed cGMP was bound to AGI-X2 resin, and [^3H]guanosine remaining in the aqueous phase was quantitated by scintillation counting.

[5] = molecular target: T3, PDE5 partially purified from human platelets (Homo sapiens, UniProt O76074); test: PDE5 enzyme inhibition assay (Example 3); format: biochemical; settings: for % Inhibition of PDE5: 100 μM
T3 construct: PDE5 partially purified from human platelets was used; from tissue; host or cells: human platelets
Experimental: as §1
PDE5: PDE5 partially purified from human platelets was used. A racemic mixture of flosequinan, and each enantiomer of flosequinan, all at a molar concentration of 100 μM, were independently incubated with 120 μg PDE5 enzyme and 1 μM cGMP containing 0.01 μM [^3H]cGMP in Tris buffer pH 7.5 for 20 minutes at 30° C. The reaction was terminated by boiling for 2 minutes, and the resulting GMP was converted to guanosine by addition of 10 mg/ml snake venom nucleotidase and further incubation at 30° C. for 10 minutes. Unhydrolyzed cGMP was bound to AGI-X2 resin, and the remaining [^3H]guanosine in the aqueous phase was quantitated by scintillation counting.

[6] = molecular target: T4, PDE1 partially purified from bovine heart (Bos taurus, UniProt P14100); test: PDE1 enzyme inhibition assay (Example 3); format: biochemical
T4 construct: PDE1 partially purified from bovine heart was used; from tissue; host or cells: bovine heart
Experimental: as §1
as §2, with “PDE1: PDE1” for “PDE2: PDE2”, “bovine heart” for “human platelets”, “13” for “23”, “PDE1” for “PDE2”, “1.0” for “25 μM cAMP containing 0.05”, “[^3H]cAMP and CaCl2/calmodulin” for “[^3H]cAMP”

[7] = in vivo, po
[8] = molecular target: T5, PDE3 partially purified from human platelets (Homo sapiens, UniProt Q14432); test: PDE3 enzyme inhibition assay (Example 3); format: biochemical
T5 construct: PDE3 partially purified from human platelets was used; from tissue; host or cells: human platelets
Experimental: as §1
as §2, with “PDE3: PDE3” for “PDE2: PDE2”, “13” for “23”, “PDE3 enzyme and 1” for “PDE2 enzyme, 25”, “0.01” for “0.05”

[9] = test system: PDE4 partially purified from human U-937 pronocytic cells; test: PDE4 enzyme inhibition assay (Example 3); format: biochemical; settings: 100 μM
Experimental: as §1
as §2, with “PDE4: PDE4” for “PDE2: PDE2”, “U-937 pronocytic cells” for “platelets”, “20” for “23”, “PDE4 enzyme and 1” for “PDE2 enzyme, 25”, “0.01” for “0.05”

T2 sequence (O00408 whole entry): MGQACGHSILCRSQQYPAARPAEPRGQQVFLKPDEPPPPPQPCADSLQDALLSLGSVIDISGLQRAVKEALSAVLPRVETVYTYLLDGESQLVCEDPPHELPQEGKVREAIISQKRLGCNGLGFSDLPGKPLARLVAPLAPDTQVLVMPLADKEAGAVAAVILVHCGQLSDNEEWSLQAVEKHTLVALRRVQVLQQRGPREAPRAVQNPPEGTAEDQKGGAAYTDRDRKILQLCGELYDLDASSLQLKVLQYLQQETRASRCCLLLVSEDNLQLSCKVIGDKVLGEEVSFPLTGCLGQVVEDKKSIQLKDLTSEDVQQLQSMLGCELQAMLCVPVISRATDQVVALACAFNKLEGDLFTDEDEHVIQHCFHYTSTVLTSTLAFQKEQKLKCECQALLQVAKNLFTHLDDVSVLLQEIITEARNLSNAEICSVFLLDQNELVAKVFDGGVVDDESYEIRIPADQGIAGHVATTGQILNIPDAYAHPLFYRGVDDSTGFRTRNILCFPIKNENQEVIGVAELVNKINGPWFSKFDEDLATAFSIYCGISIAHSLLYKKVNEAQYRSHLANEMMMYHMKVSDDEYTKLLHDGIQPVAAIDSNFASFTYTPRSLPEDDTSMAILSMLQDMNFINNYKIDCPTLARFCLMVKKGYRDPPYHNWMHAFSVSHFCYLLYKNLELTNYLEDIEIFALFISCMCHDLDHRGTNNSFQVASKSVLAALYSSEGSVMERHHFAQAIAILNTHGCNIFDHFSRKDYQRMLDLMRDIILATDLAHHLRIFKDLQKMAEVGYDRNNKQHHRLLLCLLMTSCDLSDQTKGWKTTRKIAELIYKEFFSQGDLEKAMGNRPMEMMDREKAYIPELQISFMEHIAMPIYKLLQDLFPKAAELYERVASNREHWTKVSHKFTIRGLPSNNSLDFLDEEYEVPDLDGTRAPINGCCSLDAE
T5 sequence (Q14432 whole entry): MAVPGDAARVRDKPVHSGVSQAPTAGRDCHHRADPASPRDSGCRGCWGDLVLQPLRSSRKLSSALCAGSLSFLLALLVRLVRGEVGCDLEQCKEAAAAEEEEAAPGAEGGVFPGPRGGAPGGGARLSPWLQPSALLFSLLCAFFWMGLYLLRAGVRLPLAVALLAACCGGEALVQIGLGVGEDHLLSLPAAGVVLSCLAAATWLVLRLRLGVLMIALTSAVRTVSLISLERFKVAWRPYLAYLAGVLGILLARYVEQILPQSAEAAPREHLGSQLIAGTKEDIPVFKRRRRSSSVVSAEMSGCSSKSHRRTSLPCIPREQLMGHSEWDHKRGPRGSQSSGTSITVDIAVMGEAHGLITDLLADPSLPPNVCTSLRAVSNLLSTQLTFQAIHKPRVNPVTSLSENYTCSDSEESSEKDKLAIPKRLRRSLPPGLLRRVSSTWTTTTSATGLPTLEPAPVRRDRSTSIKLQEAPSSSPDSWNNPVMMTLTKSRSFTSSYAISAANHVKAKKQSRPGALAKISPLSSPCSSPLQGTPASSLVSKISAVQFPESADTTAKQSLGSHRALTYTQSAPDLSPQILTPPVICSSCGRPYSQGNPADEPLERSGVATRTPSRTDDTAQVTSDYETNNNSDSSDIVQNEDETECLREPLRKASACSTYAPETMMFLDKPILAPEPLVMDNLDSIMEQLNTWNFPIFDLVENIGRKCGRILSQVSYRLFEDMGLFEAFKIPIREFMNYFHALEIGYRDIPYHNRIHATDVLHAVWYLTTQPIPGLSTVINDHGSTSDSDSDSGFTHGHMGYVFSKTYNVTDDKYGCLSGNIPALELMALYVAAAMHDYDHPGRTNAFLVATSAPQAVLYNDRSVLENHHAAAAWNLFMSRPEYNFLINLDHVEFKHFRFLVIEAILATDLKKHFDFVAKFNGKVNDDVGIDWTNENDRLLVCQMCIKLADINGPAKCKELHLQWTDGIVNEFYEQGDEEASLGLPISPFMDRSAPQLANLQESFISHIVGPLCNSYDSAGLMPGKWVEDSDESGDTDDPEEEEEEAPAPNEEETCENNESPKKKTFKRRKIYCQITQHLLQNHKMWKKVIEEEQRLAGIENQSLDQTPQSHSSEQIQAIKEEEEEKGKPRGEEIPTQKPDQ
T4 sequence (P14100 1-514 isoform P14100-2): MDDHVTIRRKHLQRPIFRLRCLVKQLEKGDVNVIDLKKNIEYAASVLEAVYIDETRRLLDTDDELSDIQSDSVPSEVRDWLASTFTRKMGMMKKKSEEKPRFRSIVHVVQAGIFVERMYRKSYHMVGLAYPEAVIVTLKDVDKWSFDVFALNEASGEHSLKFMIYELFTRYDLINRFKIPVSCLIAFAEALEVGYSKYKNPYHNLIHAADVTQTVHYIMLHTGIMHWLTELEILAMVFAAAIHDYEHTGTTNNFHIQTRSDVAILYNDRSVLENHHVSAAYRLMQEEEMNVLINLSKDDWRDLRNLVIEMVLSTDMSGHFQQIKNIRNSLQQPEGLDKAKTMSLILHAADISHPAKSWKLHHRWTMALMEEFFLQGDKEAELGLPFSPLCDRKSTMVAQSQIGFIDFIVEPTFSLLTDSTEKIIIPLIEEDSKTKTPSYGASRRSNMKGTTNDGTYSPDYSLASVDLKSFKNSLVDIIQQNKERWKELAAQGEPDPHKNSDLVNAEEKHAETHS

## CSc1cn(C)c2cc(F)ccc2c1=O [metabolite]
[1]
  Time of peak plasma concentration: about seven

## CCCc1nn(C)c2c(=O)[nH]c(-c3cc(S(=O)(=O)N4CCN(C)CC4)ccc3OCC)nc12 [Viagra, Sildenafil citrate]
[2]; read-out: % Inhibition of PDE6, 0.3 μM compound
  inhibition at 0.3 µM: ~50%
[2]; read-out: % Inhibition of PDE6, 1.0 μM compound
  inhibition at 1 µM: 62%
[2]; read-out: % Inhibition of PDE6, 3.0 μM compound
  inhibition at 3 µM: 87%

## Cn1cc([S@@+](C)[O-])c(=O)c2ccc(F)cc21 [(+)-flosequinan]
[3]
  % Inhibition of PDE2: 18%
[4]
  % Inhibition of PDE6: 22%
[5]
  % Inhibition of PDE5: 17%
[6]; 100 μM
  % Inhibition of PDE1: 28%
  PDE1 inhibitory activity compared with the (−) enantiomer: more PDE1 and PDE3 inhibitory activity
[7]
  Time of peak plasma concentration: 1 to 2 h
[8]; 100 μM
  % Inhibition of PDE3: 32%
  PDE3 inhibitory activity compared with the (−) enantiomer: more PDE1 and PDE3 inhibitory activity
[8]; same molar concentration
  Increase in PDE3 inhibition compared to the (−) enantiomer: eight-fold
  PDE3 inhibition compared with racemic mixture of flosequinan: greater inhibition of PDE3 than a racemic mixture of flosequinan
[9]
  % Inhibition of PDE4: 6%

## Cn1cc([S+](C)[O-])c(=O)c2ccc(F)cc21 (single isomer, unassigned; (-)) [(−)-flosequinan]
[3]
  % Inhibition of PDE2: 13%
[4]
  % Inhibition of PDE6: 21%
[5]
  % Inhibition of PDE5: 10%
[6]; 100 μM
  % Inhibition of PDE1: 11%
[8]; 100 μM
  % Inhibition of PDE3: 5%
[9]
  % Inhibition of PDE4: 1%

## Cn1cc([S+](C)[O-])c(=O)c2ccc(F)cc21 (racemic) [Flosequinan, 7-fluoro-1-methyl-3-(methylsulphinyl)-4(1H)-quinolone, reference compound]
[3]
  inhibition at 100 µM: 18%
[4]
  inhibition at 100 µM: 21%
[2]; 100 μM compound
  inhibition at 100 µM: 36%
[2]; read-out: Concentration required for around 50% inhibition of PDE6
  pIC50: < 4.00
[2]; versus Viagra 0.3 μM
  Times more compound on a molar basis than Viagra needed for around 50% PDE6 inhibition: more than 300 times
[5]
  inhibition at 100 µM: 11%
[6]
  inhibition at 100 µM: 31%
[8]; 100 μM
  inhibition at 100 µM: 26%
[9]
  % Inhibition of PDE4: 24%
